Results as given in patent publication US12503438B2, “Compounds for the treatment of kinase-dependent disorders” (Exelixis, Inc., priority 2019, dated 2025).
pIC50: −log10 of the molar value.

Target: Met (Homo sapiens, UniProt P08581)
Experiment: Met autophosphorylation ELISA in PC-3 cells
Assay type: cell-based
Parameters: endogenous in cells; host or cells: PC-3 prostate cancer cells (ATCC #CRL-1435)
Conditions: cellular activity, HGF-stimulated, phospho-Met ELISA, read-out: c-Met IC50
Method in brief: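 Phospho-Met (panTyr) sandwich ELISA on lysates of PC-3 cells given 100 ng/mL HGF for 10 min after 1 h compound exposure (8-point curve, 0.3% DMSO) following 3 h serum starvation. Normalised to HGF-stimulated DMSO and reference-inhibitor wells; 4-parameter logistic IC50.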

Chain of Met (P08581 25-1390): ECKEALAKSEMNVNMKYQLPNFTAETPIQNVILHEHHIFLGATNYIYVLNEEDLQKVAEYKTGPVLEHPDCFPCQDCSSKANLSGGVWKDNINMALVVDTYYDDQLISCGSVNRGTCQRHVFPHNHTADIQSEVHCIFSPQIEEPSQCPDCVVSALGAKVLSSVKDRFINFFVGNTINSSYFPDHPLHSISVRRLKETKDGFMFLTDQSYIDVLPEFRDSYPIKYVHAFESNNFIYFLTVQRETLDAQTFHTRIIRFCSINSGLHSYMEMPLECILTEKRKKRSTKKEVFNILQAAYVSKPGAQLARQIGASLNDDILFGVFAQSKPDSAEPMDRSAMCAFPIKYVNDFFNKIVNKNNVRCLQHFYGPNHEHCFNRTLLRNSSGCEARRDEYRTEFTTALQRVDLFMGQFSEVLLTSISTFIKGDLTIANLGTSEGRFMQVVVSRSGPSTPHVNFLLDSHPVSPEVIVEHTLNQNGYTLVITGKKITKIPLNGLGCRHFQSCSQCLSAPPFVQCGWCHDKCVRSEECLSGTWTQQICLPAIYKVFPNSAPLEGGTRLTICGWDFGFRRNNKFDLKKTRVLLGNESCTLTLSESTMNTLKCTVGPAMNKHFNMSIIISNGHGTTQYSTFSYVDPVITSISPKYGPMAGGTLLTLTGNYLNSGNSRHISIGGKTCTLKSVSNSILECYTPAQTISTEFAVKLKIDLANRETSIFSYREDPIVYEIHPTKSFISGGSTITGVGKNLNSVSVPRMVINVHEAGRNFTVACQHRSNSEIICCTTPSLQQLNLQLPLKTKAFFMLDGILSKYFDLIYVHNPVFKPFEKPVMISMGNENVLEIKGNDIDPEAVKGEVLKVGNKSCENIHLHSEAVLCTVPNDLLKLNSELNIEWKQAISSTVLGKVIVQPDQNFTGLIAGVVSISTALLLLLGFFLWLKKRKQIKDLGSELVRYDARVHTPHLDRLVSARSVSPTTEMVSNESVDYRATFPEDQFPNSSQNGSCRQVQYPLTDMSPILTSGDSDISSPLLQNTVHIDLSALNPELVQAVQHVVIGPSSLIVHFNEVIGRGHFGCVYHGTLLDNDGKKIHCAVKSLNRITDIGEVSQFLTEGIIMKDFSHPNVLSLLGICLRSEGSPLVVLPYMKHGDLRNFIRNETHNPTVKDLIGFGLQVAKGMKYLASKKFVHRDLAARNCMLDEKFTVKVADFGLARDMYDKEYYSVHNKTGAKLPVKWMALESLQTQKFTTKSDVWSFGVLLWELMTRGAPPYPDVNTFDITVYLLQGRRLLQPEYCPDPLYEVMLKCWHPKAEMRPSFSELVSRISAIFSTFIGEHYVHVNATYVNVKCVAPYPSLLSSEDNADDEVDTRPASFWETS

| SMILES | pIC50 |
| --- | --- |
| Cc1cn(-c2ccc3c(Oc4ccc(NC(=O)C5(C(=O)Nc6ccc(F)cc6)CC5)cc4)ccnc3c2)cn1 [Compound 87, 1-N′-(4-Fluorophenyl)-1-N-[4-[7-(4-methylimidazol-1-yl)quinolin-4-yl]oxyphenyl]cyclopropane-1,1-dicarboxamide] | 7.00 to 8.00 |
| Cc1ccn(-c2ccc3c(Oc4ccc(NC(=O)C5(C(=O)Nc6ccc(F)cc6)CC5)cc4)ccnc3c2)n1 [Compound 91, 1-N′-(4-Fluorophenyl)-1-N-[4-[7-(3-methylpyrazol-1-yl)quinolin-4-yl]oxyphenyl]cyclopropane-1,1-dicarboxamide] | 7.00 to 8.00 |
| CC(=O)N1CCC(c2ccc3c(Oc4ccc(NC(=O)C5(C(=O)Nc6ccc(F)cc6)CC5)cc4)ccnc3c2)C1 (stereo not drawn) [Compound 92, 1-N-[4-[7-(1-Acetylpyrrolidin-3-yl)quinolin-4-yl]oxyphenyl]-1-N′-(4-fluorophenyl)cyclopropane-1,1-dicarboxamide] | 7.00 to 8.00 |
| CS(=O)(=O)N1CCC(c2ccc3c(Oc4ccc(NC(=O)C5(C(=O)Nc6ccc(F)cc6)CC5)cc4)ccnc3c2)C1 (stereo not drawn) [Compound 93, 1-N′-(4-Fluorophenyl)-1-N-[4-[7-(1-methylsulfonylpyrrolidin-3-yl)quinolin-4-yl]oxyphenyl]cyclopropane-1,1-dicarboxamide] | 7.00 to 8.00 |
| O=C(Nc1ccc(F)cc1)C1(C(=O)Nc2ccc(Oc3ccnc4cc(-c5cnn(CF)c5)ccc34)cc2)CC1 [Compound 94, 1-N-[4-[7-[1-(Fluoromethyl)pyrazol-4-yl]quinolin-4-yl]oxyphenyl]-1-N′-(4-fluorophenyl)cyclopropane-1,1-dicarboxamide] | 7.00 to 8.00 |
| Cc1cnn(-c2ccc3c(Oc4ccc(NC(=O)C5(C(=O)Nc6ccc(F)cc6)CC5)cc4)ccnc3c2)c1 [Compound 96, 1-N′-(4-Fluorophenyl)-1-N-[4-[7-(4-methylpyrazol-1-yl)quinolin-4-yl]oxyphenyl]cyclopropane-1,1-dicarboxamide] | 7.00 to 8.00 |
| Nc1cc(-c2ccc3c(Oc4ccc(NC(=O)C5(C(=O)Nc6ccc(F)cc6)CC5)cc4)ccnc3c2)ccn1 [Compound 97, 1-N-[4-[7-(2-Aminopyridin-4-yl)quinolin-4-yl]oxyphenyl]-1-N′-(4-fluorophenyl)cyclopropane-1,1-dicarboxamide] | 7.00 to 8.00 |
| O=C(Nc1ccc(F)cc1)C1(C(=O)Nc2ccc(Oc3ccnc4cc(-c5cc6ccccn6n5)ccc34)cc2)CC1 [Compound 104, 1-N′-(4-Fluorophenyl)-1-N-[4-(7-pyrazolo[1,5-a]pyridin-2-ylquinolin-4-yl)oxyphenyl]cyclopropane-1,1-dicarboxamide] | 6.52 to 7.00 |
| Cc1cc2c(Oc3cc(F)c(NC(=O)C4(C(=O)Nc5ccc(F)cc5)CC4)cc3F)ccnc2cc1-c1cnn(C)c1 [Compound 105, 1-N′-[2,5-Difluoro-4-[6-methyl-7-(1-methylpyrazol-4-yl)quinolin-4-yl]oxyphenyl]-1-N-(4-fluorophenyl)cyclopropane-1,1-dicarboxamide] | 7.00 to 8.00 |
| Cc1cc2c(Oc3ccc(NC(=O)C4(C(=O)Nc5ccc(F)cc5)CC4)cc3)ccnc2cc1-c1cc[nH]n1 [Compound 107, 1-N′-(4-Fluorophenyl)-1-N-[4-[6-methyl-7-(1H-pyrazol-3-yl)quinolin-4-yl]oxyphenyl]cyclopropane-1,1-dicarboxamide] | 6.52 to 7.00 |
| Cc1cc2c(Oc3ccc(NC(=O)C4(C(=O)Nc5ccc(F)cc5)CC4)cc3)ccnc2cc1-c1ccn(C)n1 [Compound 108, 1-N′-(4-Fluorophenyl)-1-N-[4-[6-methyl-7-(1-methylpyrazol-3-yl)quinolin-4-yl]oxyphenyl]cyclopropane-1,1-dicarboxamide] | 6.52 to 7.00 |

Results, then the molecule that gave them:

| pIC50 | SMILES |
| --- | --- |
| 6.52 to 7.00 | O=C(Nc1ccc(F)cc1)C1(C(=O)Nc2ccc(Oc3ccnc4cc(-c5ccccc5)ccc34)cc2)CC1 [Compound 55, 1-N′-(4-Fluorophenyl)-1-N-[4-(7-phenylquinolin-4-yl)oxyphenyl]cyclopropane-1,1-dicarboxamide] |
| 7.00 to 8.00 | Nc1n[nH]cc1-c1ccc2c(Oc3ccc(NC(=O)C4(C(=O)Nc5ccc(F)cc5)CC4)cc3)ccnc2c1 [Compound 90, 1-N-[4-[7-(3-Amino-1H-pyrazol-4-yl)quinolin-4-yl]oxyphenyl]-1-N′-(4-fluorophenyl)cyclopropane-1,1-dicarboxamide] |
| 7.00 to 8.00 | O=C(Nc1ccc(F)cc1)C1(C(=O)Nc2ccc(Oc3ccnc4cc(C5=CCOC5)ccc34)cc2)CC1 [Compound 95, 1-N-[4-[7-(2,5-Dihydrofuran-3-yl)quinolin-4-yl]oxyphenyl]-1-N′-(4-fluorophenyl)cyclopropane-1,1-dicarboxamide] |
| 7.00 to 8.00 | O=C(Nc1ccc(F)cc1)C1(C(=O)Nc2ccc(Oc3ccnc4cc(-c5ccn(C6CC6)n5)ccc34)cc2)CC1 [Compound 98, 1-N-[4-[7-(1-Cyclopropylpyrazol-3-yl)quinolin-4-yl]oxyphenyl]-1-N′-(4-fluorophenyl)cyclopropane-1,1-dicarboxamide] |
| 7.00 to 8.00 | Cc1cc(-c2ccc3c(Oc4ccc(NC(=O)C5(C(=O)Nc6ccc(F)cc6)CC5)cc4)ccnc3c2)n[nH]1 [Compound 99, 1-N′-(4-Fluorophenyl)-1-N-[4-[7-(5-methyl-1H-pyrazol-3-yl)quinolin-4-yl]oxyphenyl]cyclopropane-1,1-dicarboxamide] |
| 7.00 to 8.00 | Cc1cc(-c2ccc3c(Oc4ccc(NC(=O)C5(C(=O)Nc6ccc(F)cc6)CC5)cc4)ccnc3c2)nn1C [Compound 101, 1-N-[4-[7-(1,5-Dimethylpyrazol-3-yl)quinolin-4-yl]oxyphenyl]-1-N′-(4-fluorophenyl)cyclopropane-1,1-dicarboxamide] |
| 7.00 to 8.00 | O=C(Nc1ccc(F)cc1)C1(C(=O)Nc2ccc(Oc3ccnc4cc(-c5ccn(CF)n5)ccc34)cc2)CC1 [Compound 102, 1-N-[4-[7-[1-(Fluoromethyl)pyrazol-3-yl]quinolin-4-yl]oxyphenyl]-1-N′-(4-fluorophenyl)cyclopropane-1,1-dicarboxamide] |
